In patent publication US11375718B2, “Use of prodigiosin in resisting potyvirus” (priority 2020, dated 2022):
Residues, ends and D or L forms follow the SMILES beside them. *: point of attachment. Cbz = O=C(OCc1ccccc1)*

Key:
Hsp70 protein = assay: Western blot of Hsp70 protein in MG-132-treated plants induced by prodigiosin S3; assay type: in vivo, Nicotiana benthamiana
Method: In order to further analyze the role of ubiquitination modification in the antiviral mechanism of prodigiosin S3, we used MG-132 to treat Nicotiana benthamiana in advance. After 2 h, 0.05 μg/L prodigiosin was applied on the tobacco leaf surface uniformly according to 15 L/mu. After 30 minutes, TMV and PVY viruses were inoculated. The samples of 1 d, 2 d and 3 d after virus inoculation were collected for Western Blot analysis.

26S proteasome complex = details: read-out: IC50 (proteasome inhibitor); cited from earlier work
[1] = Quantitative proteomics and ubiquitination omics of prodigiosin-treated tobacco leaves; assay type: in vivo, Nicotiana benthamiana; details: treatment group vs control group, p<0.05
Excerpt: In order to further understand the mechanism of systemic resistance of a plant induced by prodigiosin, the prodigiosin treated Nicotiana benthamiana was used as a target material, the optimal reaction time point of prodigiosin against PVY was selected, and the quantitative proteomics and ubiquitinated nonstandard quantitative proteomics in tobacco leaves were studied by organically combining a series of advanced technologies such as non-standard quantitative technology, high performance liquid chromatography (HPLC) fractionation technology, ubiquitinated peptide enrichment technology and quantitative proteomics technology based on mass spectrometry.
Extraction of protein. The leaf sample was taken from −80° C., put in a mortar precooled with liquid nitrogen, fed with liquid nitrogen, and fully ground to powder; 4 times the volume of powdered lysis buffer (8 M urea, 1% TritonX-100, 10 mM DTT, 1% protease inhibitor and 50 μM PR-619) was added for ultrasonic lysis; followed by 10 min of centrifugation (4° C., 20000 g), the supernatant was carefully aspirated off, and trichloroacetic acid was added to a final concentration of 20%; the mixture was left at 4° C. for 2 h; and centrifuged (4° C., 20000 g) for 3 min. The supernatant was discharged, and the precipitate was washed with precooled acetone for three times; the precipitate was re-dissolved (8 M urea) and the protein concentration was determined.
Proteolysis. DTT was added to the protein solution to a final concentration of 5 mM and was reduced at 56° C. for 30 min. Iodoacetamide was then added and incubated for 15 min at room temperature away from light. Pancreatin was added based on a mass ratio of pancreatin:protein=1:50 and enzymolysis was performed at 37° C. overnight. Pancreatin was added again based on a mass ratio of pancreatin:protein=1:100 and enzymolysis was continued for 4 h.
HPLC Fractionation. The enzymatic solution was fractionated by high pH reverse phase HPLC on an Agilent 300 Extend C18 (5 μm particle size, 4.6 mm internal diameter, 250 mm length) column. The operation was as follows: a peptide fragment grading gradient was 8%-32% acetonitrile, the pH was 9; 60 components were separated in 60 min, then the components were combined into 4 components, and the combined components were subjected to lyophilization for subsequent operations.
HPLC-MS Analysis. The lyophilized fractions were analyzed by HPLC-MS: dissolved by a mobile phase A phase (0.1% (v/v) formic acid in water) and separated using EASY-nLC 1000 ultra high performance liquid phase system. […]
Database Search. […] Differential genes and proteins were analyzed by GO enrichment, and KEGG pathway.

TMV = assay: Induced resistance of tobacco to TMV after leaf application of prodigiosin; assay type: in vivo, Nicotiana tabacum cv. NC89; details: infiltration treatment
Method: (§1) The plant material used in this experiment was Nicotiana tabacum cv. NC89, reproduced by our laboratory and cultivated in a greenhouse. Experimental plant culture conditions included: illumination 16 h, temperature 25±1° C., illumination intensity 2000 lux and relative humidity 60%; and dark duration 8 h, temperature 25±1° C. and relative humidity 60%. The nutrient substrate was produced by the Wode nutrient soil processing plant in Shouguang City, Shandong Province, and no additional fertilization was needed during plant growth. The sources of TMV and PVY were preserved by the Plant Protection Research Center of the Institute of Tobacco Research of CAAC (Chinese Academy of Agricultural Sciences), and were propagated and preserved on Nicotiana tabacum cv. NC89 grown in the greenhouse. The prodigiosin S3 was isolated and purified from Serratia marcescens fermentation broth by Plant Protection Research Center of the Institute of Tobacco Research of CAAC.

PVY = assay: Induced resistance of tobacco to PVY after leaf application of prodigiosin; assay type: in vivo, Nicotiana tabacum cv. NC89; details: infiltration treatment
Method: as §1

[2] = 2031 sites on 1110 proteins identified

CC(C)C[C@@H](C=O)NC(=O)[C@H](CC(C)C)NC(=O)[C@H](CC(C)C)NC(=O)OCc1ccccc1 [MG-132] (Cbz-Leu-Leu-Leu-aldehyde)
content of Hsp70 protein (Hsp70 protein; MG-132-treated samples induced by prodigiosin S3): increases significantly | accumulation of Hsp70 protein (Hsp70 protein; MG-132 in advance, after 2 h 0.05 μg/L prodigiosin at 15 L/mu, inoculated after 30 minutes, PVY virus 1 d, vs control group): significantly increased | IC50 (26S proteasome complex): 0.1 µM

CCCCCC1=C/C(=C/c2[nH]c(-c3ccc[nH]3)cc2OC)N=C1C [prodigiosin]
number of ubiquitination sites with down-regulated modification level [1, 2]: 21 | number of ubiquitination sites with up-regulated modification level [1, 2]: 33 | number of proteins with down-regulated expression ([1]; 6122 proteins identified): 186 | number of proteins with up-regulated expression ([1]; 6122 proteins identified): 223 | induced resistance to TMV (TMV): 100% | induced resistance to PVY (PVY): 100%
